pIC50: −log10 of the molar value. Read-outs that look alike come from different tables or passages of the source.
Key:
Format in all cases: cell-based
human CXCR4 = biological target: T1, human CXCR4 (Homo sapiens, UniProt P61073); experiment: Functional FLIPR assay (block of SDF-1 alpha induced [Ca2+]i change); settings: HEK-293 cells with human CXCR4 BacMam and Gqi5 BacMam; antagonism of SDF-1 alpha; read-out: Functional assay (pIC50) (converted)
T1 construct: expressed in transfected cells; host or cells: HEK-293 cells (stably expressing human macrophage scavenging receptor) transduced with human CXCR4 BacMam and Gqi5 BacMam baculoviruses
Description: Human embryonic kidney (HEK-293) cells were maintained and harvested as described above. Cells were plated in 96-well, black clear bottom, poly-lysine coated plates at a concentration of 40,000 cells per well in a final volume of 100 ul containing human CXCR4BacMam (MOI=25) and Gqi5 BacMam (MOI=12.5). The cells were incubated at 37° C., 5% CO2, 95% humidity for 24 h to allow for protein expression.
After the required incubation time the cells were washed once with 50 ul of fresh serum-free DMEM/F12 media containing probenicid. 50 ul of dye solution was then added to the cells (Calcium Plus Assay Kit Dye; Molecular Devices) was dissolved in 200 ml of the above probenicid/BSA containing media and incubated for 1 h. Cell plates were transferred to a Fluorometric Imaging Plate Reader (FLIPR). Upon addition the effect of the compounds on the change in [Ca^2+]i was examined to determine if the compounds were agonists or antagonists (ability to block SDF-1 alpha activity) at the CXCR4 receptor. IC50 values are determined and pKb values are calculated using the Leff and Dougall equation: KB=IC50/((2+([agonist]/EC50ˆb)ˆ1/b−1) Where IC50 is that defined by the antagonist concentration-response curve [agonist] is the EC80 concentration of agonist used EC50 is that defined by the agonist concentration-response curve b is the slope of the agonist concentration-response curve.

[1] = system: HIV-1 gp160 (from the HXB2 HIV strain); experiment: Cell/cell fusion assay (HEK-293 expressing HIV-1 tat, rev, gp160 with HOS hCXCR4/hCCR5/hCD4/pHIV-LTR-luciferase cells); settings: Human immunodeficiency virus 1, HXB2, HEK293, 24 h, read-out: Fusion assay (pIC50), luciferase readout after 24 h (converted)
Excerpt: The complete coding sequences of HIV-1 tat (GenBank Accession No. X07861) and rev (GenBank Accession No. M34378) were cloned into pcDNA3.1 expression vectors containing G418 and hygromycin resistance genes, respectively. The complete coding sequence of the HIV-1 (HXB2 strain) gp160 envelope gene (nucleotide bases 6225-8795 of GenBank Accession No. K03455) was cloned into plasmid pCRII-TOPO. The three HIV genes were additionally inserted into the baculovirus shuttle vector, pFastBacMam1, under the transcriptional control of the CMV promoter. A construction of the pHIV-I LTR containing mutated NFkB sequences linked to the luciferase reporter gene was prepared by digesting pcDNA3.1, containing the G418 resistance gene, with Nru I and Bam HI to remove the CMV promoter. LTR-luc was then cloned into the Nru I/Bam HI sites of the plasmid vector. Plasmid preparations were performed after the plasmids were amplified in Escherichia coli strain DH5-alpha. The fidelity of the inserted sequences was confirmed by double-strand nucleotide sequencing using an ABI Prism Model 377 automated sequencer.
Recombinant BacMam baculoviruses were constructed from pFastBacMam shuttle plasmids by using the bacterial cell-based Bac-to-Bac system. Viruses were propagated in Sf9 (Spodoptera frugiperda) cells cultured in Hink's TNM-FH Insect media supplemented with 10% (v/v) fetal bovine serum and 0.1% (v/v) pluronic F-68 according to established protocols.
Human osteosarcoma (HOS) cells that naturally express human CXCR4 were transfected with human CCR5, human CD4 and the pHIV-LTR-luciferase plasmid using FuGENE 6 transfection reagent. Single cells were isolated and grown under selection condition in order to generate a stable HOS (hCXCR4/hCCR5/hCD4/pHIV-LTR-luciferase) clonal cell line. The cells were maintained in Dulbeccos modified Eagles media supplemented with 10% fetal calf serum (FCS), G418 (400 ug/ml), puromycin (1 ug/ml), mycophenolic acid (40 ug/ml), xanthine (250 ug/ml) and hypoxanthine (13.5 ug/ml) to maintain a selection pressure for cells expressing the LTR-luciferase, hCCR5 and hCD4, respectively. Human embryonic kidney (HEK-293) cells stably transfected to express the human macrophage scavenging receptor (Class A, type 1; GenBank Accession No. D90187), were maintained in DMEM/F-12 media (1:1) supplemented with 10% FCS and 1.5 ug/ml puromycin. The expression of this receptor by the HEK-293 cells enhances their ability to stick to tissue culture treated plasticware.
HEK-293 cells were harvested using enzyme-free cell dissociation buffer. The cells were resuspended in DMEM/F-12 media supplemented with 10% FCS and 1.5 ug/ml and counted. Tranductions were performed by direct addition of BacMam baculovirus containing insect cell media to cells. The cells were simultaneously transduced with BacMam baculovirus expressing HIV-1 tat, HIV-1 rev and HIV-1 gp160 (from the HXB2 HIV strain). Routinely an MOI of 10 of each virus was added to the media containing the cells. 2 mM butyric acid was also added to the cells at this stage to increase protein expression in transduced cells. The cells were subsequently mixed and seeded into a flask at 30 million cells per T225. The cells were incubated at 37° C., 5% CO2, 95% humidity for 24 h to allow for protein expression.
HEK and HOS cells were harvested in DMEM/F-12 media containing 2% FCS and DMEM media containing 2% FCS, respectively, with no selection agents added. Compounds were plated as 1 ul spots in 100% DMSO on a 96-well CulturPlate plates. HOS cells (50 ul) were added first to the wells, followed immediately by the HEK cells (50 ul). The final concentration of each cell type was 20,000 cells per well. Following these additions, the cells were returned to a tissue culture incubator (37° C.; 5% CO2/95% air) for an additional 24 h.
Following the 24 h incubation, total cellular luciferase activity was measured using the LucLite Plus assay kit (Packard, Meridien, Conn.). […]

[2] = Compound cytotoxicity in the absence of virus addition (CellTiter-Glo); settings: human; non-infected HOS cultures; read-out: Cytotox (pIC50) (converted)
Description: Compounds were profiled against two HIV-1 viruses, the M-tropic (CCR5 utilizing) Ba-L strain and the T-tropic (CXCR4 utilizing) IIIB strain. Both viruses were propagated in human peripheral blood lymphocytes. Compounds were tested for there ability to block infection of the HOS cell line (expressing hCXCR4/hCCR5/hCD4/pHIV-LTR-luciferase) by either HIV-1 Ba-L or HIV-1 IIIB. Compound cytotoxicity was also examined in the absence of virus addition.
HOS cells (expressing hCXCR4/hCCR5/hCD4/pHIV-LTR-luciferase) were harvested and diluted in Dulbeccos modified Eagles media supplemented with 2% FCS and non-essential amino acid to a concentration of 60,000 cells/ml. The cells were plated into 96-well plates (100 ul per well) and the plates were placed in a tissue culture incubator (37° C.; 5% CO2/95% air) for a period of 24 h.
Subsequently, 50 ul of the desired drug solution (4 times the final concentration) was added to each well and the plates were returned to the tissue culture incubator (37° C.; 5% CO2/95% air) for 1 h. Following this incubation 50 ul of diluted virus was added to each well (approximately 2 million RLU per well of virus). The plates were returned to the tissue culture incubator (37° C.; 5% CO2/95% air) and were incubated for a further 96 h.
Following this incubation the endpoint for the virally infected cultures was quantified following addition of Steady-Glo Luciferase assay system reagent (Promega, Madison, Wis.). Cell viability or non-infected cultures was measured using a CellTiter-Glo luminescent cell viability assay system (Promega, Madison, Wis.). All luminescent readouts are performed on a Topcount luminescence detector (Packard, Meridien, Conn.).

[3] = system: HIV-1 IIIB (T-tropic, CXCR4 utilizing); experiment: HOS HIV-1 infectivity assay
In short: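 Engineered HOS reporter cells in 2% FCS medium received compound 1 h ahead of HIV-1 (~2 million RLU/well). Cultures ran 96 h at 37 °C before luciferase quantitation; parallel uninfected wells were scored for viability by CellTiter-Glo.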

[4] = Human immunodeficiency virus 1, IIIB, as determined by the infectivity assay, strain not stated in Table 2, read-out: Activity Level
[5] = Human immunodeficiency virus 1, HIV-1 IIIB, HOS cells, 96 h, luciferase readout, read-out: HOS (3B)
[6] = as determined by the infectivity assay, strain not stated in Table 2, read-out: Activity Level

T1 sequence (P61073 whole entry): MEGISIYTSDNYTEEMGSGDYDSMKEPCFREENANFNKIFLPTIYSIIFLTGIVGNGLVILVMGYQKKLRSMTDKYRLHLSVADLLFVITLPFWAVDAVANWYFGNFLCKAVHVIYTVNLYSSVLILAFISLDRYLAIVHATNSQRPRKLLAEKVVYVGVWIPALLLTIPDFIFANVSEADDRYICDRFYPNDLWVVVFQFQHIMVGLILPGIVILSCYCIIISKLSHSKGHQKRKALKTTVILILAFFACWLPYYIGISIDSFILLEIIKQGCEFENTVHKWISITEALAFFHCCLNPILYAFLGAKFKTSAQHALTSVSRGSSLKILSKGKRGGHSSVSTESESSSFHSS

SMILES | IC50 (human CXCR4) [nM] | IC50 [1] [nM] | IC50 at 96 h [2] [µM] | pIC50 [3, 4] | pIC50 [3, 5] | pIC50 [3, 6]
CN(Cc1nc2cccc(C(=O)NCCc3cnc[nH]3)c2[nH]1)C1CCCc2cccnc21 (stereo not drawn) [Example 23, N-[2-(1H-Imidazol-4-yl)ethyl]-2-{[methyl(5,6,7,8-tetrahydro-8-quinolinyl)amino]methyl}-1H-benzimidazole-4-carboxamide] | 13.5 | 158 | > 100 | > 7.00 | 7.74 | –
CN(Cc1nc2c(C(=O)NCCc3cn(C)cn3)cccc2[nH]1)C1CCCc2cccnc21 (stereo not drawn) [Example 24, N-[2-(1-Methyl-1H-imidazol-4-yl)ethyl]-2-{[methyl(5,6,7,8-tetrahydro-8-quinolinyl)amino]methyl}-1H-benzimidazole-4-carboxamide] | 12.3 | 145 | > 100 | > 7.00 | 7.66 | –
CN(Cc1nc2c(C(N)=O)cccc2[nH]1)C1CCCc2cccnc21 (stereo not drawn) [Example 25, 2-{[Methyl(5,6,7,8-tetrahydro-8-quinolinyl)amino]methyl}-1H-benzimidazole-4-carboxamide] | 174 | 275 | > 100 | 6.30 to 7.00 | 6.84 | –
CN(Cc1nc2c(C(=O)NCCN)cccc2[nH]1)C1CCCc2cccnc21 (stereo not drawn) [Example 26, N-(2-Aminoethyl)-2-{[methyl(5,6,7,8-tetrahydro-8-quinolinyl)amino]methyl}-1H-benzimidazole-4-carboxamide] | 20.9 | 49 | > 100 | > 7.00 | 7.57 | –
CN(Cc1nc2c(C(=O)NCCCN3CCCC3)cccc2[nH]1)C1CCCc2cccnc21 (stereo not drawn) [Example 28, 2-{[Methyl(5,6,7,8-tetrahydro-8-quinolinyl)amino]methyl}-N-[3-(1-pyrrolidinyl)propyl]-1H-benzimidazole-4-carboxamide] | 57.5 | 148 | > 100 | > 7.00 | 7.36 | –
CN(C)CCCNC(=O)c1cccc2[nH]c(CN(C)C3CCCc4cccnc43)nc12 (stereo not drawn) [Example 29, N-[3-(Dimethylamino)propyl]-2-{[methyl(5,6,7,8-tetrahydro-8-quinolinyl)amino]methyl}-1H-benzimidazole-4-carboxamide] | 132 | 257 | > 100 | > 7.00 | 7.09 | –
CN(Cc1nc2c(C(=O)N3CCC(N)CC3)cccc2[nH]1)C1CCCc2cccnc21 (stereo not drawn) [Example 30, N-({4-[(4-Amino-1-piperidinyl)carbonyl]-1H-benzimidazol-2-yl}methyl)-N-methyl-5,6,7,8-tetrahydro-8-quinolinamine] | 2000 | 407 | > 100 | – | 7.12 | > 7.00
CN(Cc1nc2c(C(=O)N3CCC(N)C3)cccc2[nH]1)C1CCCc2cccnc21 (stereo not drawn) [Example 31, N-({4-[(3-Amino-1-pyrrolidinyl)carbonyl]-1H-benzimidazol-2-yl}methyl)-N-methyl-5,6,7,8-tetrahydro-8-quinolinamine] | 12.3 | 49 | > 100 | – | 7.66 | > 7.00
CN(Cc1nc2c(CNCCc3c[nH]cn3)cccc2[nH]1)C1CCCc2cccnc21 (stereo not drawn) [Example 32, N-{[4-({[2-(1H-Imidazol-4-yl)ethyl]amino}methyl)-1H-benzimidazol-2-yl]methyl}-N-methyl-5,6,7,8-tetrahydro-8-quinolinamine] | 66.1 | 85.1 | 7.59 | > 7.00 | 7.35 | –
CN(Cc1nc2c(CN3CCNCC3)cccc2[nH]1)C1CCCc2cccnc21 (stereo not drawn) [Example 33, N-Methyl-N-{[4-(1-piperazinylmethyl)-1H-benzimidazol-2-yl]methyl}-5,6,7,8-tetrahydro-8-quinolinamine] | 15.1 | 162 | > 100 | > 7.00 | 7.89 | –
CN(Cc1nc2c(N3CCNCC3)cccc2[nH]1)C1CCCc2cccnc21 (stereo not drawn) [Example 34, N-methyl-N-{[4-(1-piperazinyl)-1H-benzimidazol-2-yl]-methyl}-5,6,7,8-tetrahydro-8-quinolinamine] | 8.13 | 5.5 | > 100 | – | 8.21 | –

From patent US20080045537A1, “Chemical Compounds” (priority 2004, published 2008)
